From PubChem BioAssay AID504426 (Johns Hopkins Ion Channel Center, 2011) come the findings set out here.

The target in this assay is Voltage-dependent T-type calcium channel subunit alpha-1H (Homo sapiens) (UniProt O95180). The experiment in a line: Cav3.2 T-type calcium channel inhibitors, dose response, mechanism study, automated patch clamp, HEK293 cells (AID 504426). The settings on record: Cav3.2-HEK293, automated patch clamp peak current; for current change, negative = inhibition: at 30 µM (top of the series).

Structures are written as SMILES. Active and inactive are the calls of the source.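 Rule for the calls: active = channel current reduced at one or more tested doses, with a fitted dose-response curve; inactive = no curve fitted, or no current reduction at any dose.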

Voltage-dependent T-type calcium channel subunit alpha-1H (Homo sapiens), sequence (O95180 whole entry, looked up): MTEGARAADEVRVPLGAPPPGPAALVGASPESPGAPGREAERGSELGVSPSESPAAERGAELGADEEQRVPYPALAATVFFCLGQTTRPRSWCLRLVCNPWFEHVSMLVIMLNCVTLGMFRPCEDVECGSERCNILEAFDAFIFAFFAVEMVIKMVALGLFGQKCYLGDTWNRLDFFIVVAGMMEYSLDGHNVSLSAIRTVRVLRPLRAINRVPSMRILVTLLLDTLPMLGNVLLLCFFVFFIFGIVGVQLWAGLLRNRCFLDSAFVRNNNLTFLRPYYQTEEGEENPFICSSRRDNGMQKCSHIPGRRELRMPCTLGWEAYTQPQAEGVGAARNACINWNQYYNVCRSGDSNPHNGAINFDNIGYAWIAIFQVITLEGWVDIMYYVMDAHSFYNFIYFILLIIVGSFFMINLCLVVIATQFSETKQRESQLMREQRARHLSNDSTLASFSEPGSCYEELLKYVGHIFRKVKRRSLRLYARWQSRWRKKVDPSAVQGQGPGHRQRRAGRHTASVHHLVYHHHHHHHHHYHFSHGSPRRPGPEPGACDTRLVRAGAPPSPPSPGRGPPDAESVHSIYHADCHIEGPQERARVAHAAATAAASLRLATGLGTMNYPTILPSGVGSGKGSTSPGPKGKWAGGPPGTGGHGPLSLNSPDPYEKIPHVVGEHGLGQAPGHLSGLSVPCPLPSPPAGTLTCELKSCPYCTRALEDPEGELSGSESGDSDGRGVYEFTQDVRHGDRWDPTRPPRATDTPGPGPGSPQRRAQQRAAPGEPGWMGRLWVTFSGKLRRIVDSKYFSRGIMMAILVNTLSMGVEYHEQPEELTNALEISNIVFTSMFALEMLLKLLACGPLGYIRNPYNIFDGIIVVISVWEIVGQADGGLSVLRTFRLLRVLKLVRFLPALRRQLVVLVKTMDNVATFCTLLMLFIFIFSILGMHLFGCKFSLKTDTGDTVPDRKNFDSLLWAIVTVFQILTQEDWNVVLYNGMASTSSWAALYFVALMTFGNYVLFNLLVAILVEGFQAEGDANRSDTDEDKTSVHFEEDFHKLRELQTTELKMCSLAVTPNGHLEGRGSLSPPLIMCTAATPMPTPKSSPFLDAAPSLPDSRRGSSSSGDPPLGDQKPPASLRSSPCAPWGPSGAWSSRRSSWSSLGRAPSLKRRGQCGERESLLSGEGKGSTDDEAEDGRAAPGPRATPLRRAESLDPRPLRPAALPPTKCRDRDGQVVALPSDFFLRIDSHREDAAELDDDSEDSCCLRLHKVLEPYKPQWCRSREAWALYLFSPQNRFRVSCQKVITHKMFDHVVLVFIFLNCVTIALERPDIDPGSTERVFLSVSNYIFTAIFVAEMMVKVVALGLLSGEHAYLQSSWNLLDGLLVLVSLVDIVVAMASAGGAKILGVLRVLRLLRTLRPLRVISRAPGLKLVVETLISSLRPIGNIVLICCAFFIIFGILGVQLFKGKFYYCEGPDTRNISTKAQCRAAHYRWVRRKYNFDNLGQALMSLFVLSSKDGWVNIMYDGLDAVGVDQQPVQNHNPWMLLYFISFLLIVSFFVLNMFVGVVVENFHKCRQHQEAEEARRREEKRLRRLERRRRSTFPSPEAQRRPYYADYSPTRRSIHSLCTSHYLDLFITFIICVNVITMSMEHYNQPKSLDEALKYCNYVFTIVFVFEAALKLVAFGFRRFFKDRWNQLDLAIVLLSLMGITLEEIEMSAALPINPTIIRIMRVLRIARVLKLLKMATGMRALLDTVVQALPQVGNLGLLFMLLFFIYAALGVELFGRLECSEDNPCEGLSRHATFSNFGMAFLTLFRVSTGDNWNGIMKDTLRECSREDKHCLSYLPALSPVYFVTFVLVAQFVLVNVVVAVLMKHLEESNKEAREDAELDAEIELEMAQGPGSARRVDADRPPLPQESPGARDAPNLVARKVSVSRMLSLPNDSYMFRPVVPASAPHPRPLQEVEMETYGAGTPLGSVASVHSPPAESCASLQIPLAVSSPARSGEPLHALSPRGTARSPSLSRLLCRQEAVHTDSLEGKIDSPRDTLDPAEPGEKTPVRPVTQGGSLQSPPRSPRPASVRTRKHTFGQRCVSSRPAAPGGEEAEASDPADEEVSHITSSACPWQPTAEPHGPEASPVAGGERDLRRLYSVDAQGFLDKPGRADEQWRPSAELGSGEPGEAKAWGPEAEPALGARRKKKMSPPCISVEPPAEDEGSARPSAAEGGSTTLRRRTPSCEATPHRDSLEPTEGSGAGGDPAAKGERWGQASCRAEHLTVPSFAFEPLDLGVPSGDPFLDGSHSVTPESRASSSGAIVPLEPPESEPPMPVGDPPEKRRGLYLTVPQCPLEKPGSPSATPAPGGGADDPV

Broadly, the IC50 is the concentration that inhibits the measured activity by half. As for `CC(C)(C)CCN1C[C@@H]2C(CNC(=O)c3cc(Cl)cc(Cl)c3)[C@@H]2C1` (some centres undefined), the IC50 was 0.31 µM. For the compound `CC(C)(C)Cc1nnc(NC(=O)COc2ccc(Cl)cc2Cl)o1`, the “current change, negative = inhibition” value was “inactive”. Turning to `Cc1ccc(-c2nnc(NC(=O)COc3ccc(F)cc3Cl)o2)cc1C`, the “current change, negative = inhibition” value was “inactive”.

For the compound `O=C(COc1ccc(F)cc1Cl)Nc1nnc(-c2ccc(F)c(F)c2)o1`, the IC50 is 13.5 µM.
